Target: T1, human β3 adrenergic receptor (Homo sapiens, UniProt P13945)
T1 construct: expressed in transfected cells; host or cells: DXB-11 Chinese hamster ovary (CHO) cell line, stably transfected (phd expression vector)
Assay: whole cell receptor coupled c-AMP assay, human β3 receptor in CHO cells (EC50, Emax relative to isoproterenol)
Assay type: cell-based
Conditions: Emax ± standard error of the mean; average of at least 3 runs except where n = 1; compound tested in the isolated form listed
In short: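 Stably transfected DXB-11 CHO cells (20,000/well) were exposed to compound for 20 min at 37 °C in HBSS/HEPES buffer with 1 mM IBMX, pH 7.4. cAMP was measured by SPA. EC50 came from a four-parameter logistic fit, and Emax is the maximal response as a percentage of isoproterenol's.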

T1 sequence (P13945 whole entry): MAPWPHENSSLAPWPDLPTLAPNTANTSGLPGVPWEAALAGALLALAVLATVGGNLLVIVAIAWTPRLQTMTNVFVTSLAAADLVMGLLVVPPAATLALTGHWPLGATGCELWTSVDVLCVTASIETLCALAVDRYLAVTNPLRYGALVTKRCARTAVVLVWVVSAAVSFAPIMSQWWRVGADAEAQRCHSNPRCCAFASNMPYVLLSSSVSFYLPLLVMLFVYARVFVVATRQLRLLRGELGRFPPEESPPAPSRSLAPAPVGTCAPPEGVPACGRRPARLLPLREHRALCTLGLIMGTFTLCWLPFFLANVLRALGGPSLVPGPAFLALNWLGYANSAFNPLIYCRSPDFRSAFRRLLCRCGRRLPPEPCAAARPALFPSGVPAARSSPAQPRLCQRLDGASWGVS

SMILES	Emax (%) ± SEM
CC(C)(Cc1ccc(Oc2ccc(S(N)(=O)=O)cc2F)cc1)NC[C@H](O)COc1ccccc1-c1nccs1.O=C(O)C(F)(F)F [Example 226]	37.8 ± 9.2%
CC(C)(Cc1ccc(Oc2ccccc2C(N)=O)cc1)NC[C@H](O)COc1ccc(F)cc1-c1cccs1.O=C(O)C(F)(F)F [Example 227]	51.3 ± 10.8%
CC(C)(Cc1ccc(Oc2ccccc2C(N)=O)cc1)NC[C@H](O)COc1cccc(F)c1-c1cccs1.O=C(O)C(F)(F)F [Example 228]	28.9 ± 3.4%
CC(C)(Cc1ccc(Oc2ncccc2C#N)cc1)NC[C@H](O)COc1ccccc1-c1cscn1.Cl [Example 239]	49.8 ± 4.5%
CC(C)(Cc1ccc(Oc2ncccc2C(N)=O)cc1)NC[C@H](O)COc1ccccc1-c1cscn1.Cl [Example 240]	65.7 ± 3.8%
CC(C)(Cc1ccc(Oc2cccnc2C#N)cc1)NC[C@H](O)COc1ccccc1-c1cscn1.Cl [Example 241]	47.0 ± 2.5%
CC(C)(Cc1ccc(Oc2cccnc2C(N)=O)cc1)NC[C@H](O)COc1ccccc1-c1cscn1.Cl [Example 242]	55.9 ± 4.0%
CC(C)(Cc1ccc(Oc2ccccc2C#N)cc1)NC[C@H](O)COc1ccccc1-c1cscn1.Cl [Example 243]	47.9 ± 3.5%
CC(C)(Cc1ccc(Oc2ccccc2C(N)=O)cc1)NC[C@H](O)COc1ccccc1-c1cscn1.Cl [Example 244]	66.6 ± 5.7%
CC(C)(Cc1ccc(Oc2cccc(Cl)c2C#N)cc1)NC[C@H](O)COc1ccccc1-c1cscn1.Cl [Example 245]	56.1 ± 2.9%
CC(C)(Cc1ccc(Oc2cccc(Cl)c2C(N)=O)cc1)NC[C@H](O)COc1ccccc1-c1cscn1.Cl [Example 246]	52.1 ± 2.4%
CC(C)(Cc1ccc(Oc2ccc(C#N)cn2)cc1)NC[C@H](O)COc1ccccc1-c1cscn1.Cl [Example 247]	45.4 ± 3.4%
CC(C)(Cc1ccc(Oc2ccc(C(N)=O)cn2)cc1)NC[C@H](O)COc1ccccc1-c1cscn1.Cl [Example 248]	47.5 ± 4.8%
CC(C)(Cc1ccc(Oc2ccc(S(C)(=O)=O)cc2)cc1)NC[C@H](O)COc1ccccc1-c1cscn1.Cl [Example 249]	35.9 ± 2.9%
CC(C)(Cc1ccc(Oc2ccc(S(C)(=O)=O)cc2F)cc1)NC[C@H](O)COc1ccccc1-c1cscn1.Cl [Example 250]	31.6 ± 3.1%
CC(C)(Cc1ccc(Oc2ccc(S(N)(=O)=O)cc2F)cc1)NC[C@H](O)COc1ccccc1-c1cscn1.Cl [Example 251]	33.4 ± 5.7%

Continued, values first:

Emax (%) ± SEM	SMILES
38.4 ± 3.8%	CC(C)(Cc1ccc(Oc2ccc(C(N)=O)cc2F)cc1)NC[C@H](O)COc1ccccc1-c1cscn1.Cl [Example 252]
37.6 ± 2.7%	CC(C)(Cc1ccc(Oc2ccc(C(N)=O)cc2Cl)cc1)NC[C@H](O)COc1ccccc1-c1cscn1.Cl [Example 253]
50.5 ± 0.8%	CC(C)(Cc1ccc(Oc2ncc(C(F)(F)F)cc2Cl)cc1)NC[C@H](O)COc1ccccc1-c1cscn1.Cl [Example 254]
50.6 ± 1.8%	CC(C)(Cc1ccc(Oc2cnccn2)cc1)NC[C@H](O)COc1ccccc1-c1cscn1.Cl [Example 256]
49.9 ± 3.4%	CC(C)(Cc1ccc(Oc2ncccn2)cc1)NC[C@H](O)COc1ccccc1-c1cscn1.Cl [Example 257]
48.4 ± 5.6%	CC(C)(Cc1ccc(Oc2ccc(C#N)s2)cc1)NC[C@H](O)COc1ccccc1-c1cscn1.Cl [Example 258]
54.1 ± 3.9%	CC(C)(Cc1ccc(Oc2ccc(C(N)=O)s2)cc1)NC[C@H](O)COc1ccccc1-c1cscn1.Cl [Example 259]
38.2 ± 2.0%	CC(C)(Cc1ccc(Oc2ccc(C#N)o2)cc1)NC[C@H](O)COc1ccccc1-c1cscn1.Cl [Example 260]
52.3 ± 6.6%	CC(C)(Cc1ccc(Oc2ccc(C(N)=O)o2)cc1)NC[C@H](O)COc1ccccc1-c1cscn1.Cl [Example 261]
